Source: the NIST ThermoML archive (doi:10.1021/je050540h)
Values joined by “and” are separate entries in the source; they are usually repeats but may differ in a detail not shown here. Identical values can stand only once.

Columns and labels:
[1] = Liquid
[2] = xn = mol fraction of the nth substance listed; conditions: 101 kPa, Liquid

CCC(C)O (stereo unspecified) [butan-2-ol]
[1], 101 kPa
Conditions	mass density [kg/m3]	speed of sound [m/s]	viscosity [mPa·s]
293.15 K	806.84	1230	3.623
298.15 K	802.72	1212	2.995
303.15 K	798.51	1194	2.493

C1CCCCC1 [cyclohexane]
[1]
Conditions	mass density, 293.15 K [kg/m3]	mass density, 298.15 K [kg/m3]	mass density, 303.15 K [kg/m3]	speed of sound, 293.15 K [m/s]	speed of sound, 298.15 K [m/s]	speed of sound, 303.15 K [m/s]	viscosity, 293.15 K [mPa·s]	viscosity, 298.15 K [mPa·s]	viscosity, 303.15 K [mPa·s]
7 kPa	–	–	–	1279	1254	1230	–	–	–
101 kPa	778.62	773.92	769.19	1279	1254	1230	0.968	0.887	0.816

C1CCCC1 [cyclopentane]
[1], 101 kPa
Conditions	mass density [kg/m3]	speed of sound [m/s]	viscosity
293.15 K	744.52	1232	0.438 mPa·s and 0.439 mPa·s
298.15 K	739.55	1206	0.416 mPa·s
303.15 K	734.54	1180	0.394 mPa·s

C1CCCC1 [cyclopentane] + CCCC(C)O
[2]
Conditions	mass density, 293.15 K [kg/m3]	mass density, 298.15 K [kg/m3]	mass density, 303.15 K [kg/m3]	speed of sound, 293.15 K [m/s]	speed of sound, 298.15 K [m/s]	speed of sound, 303.15 K [m/s]	viscosity, 293.15 K [mPa·s]	viscosity, 298.15 K [mPa·s]	viscosity, 303.15 K [mPa·s]
x1 = 0.045	806.38	802.28	798.1	1246	1227	1208	3.573	2.948	2.459
x1 = 0.103	802.8	798.62	794.35	1239	1220	1200	3.005	2.509	2.118
x1 = 0.1878	797.38	793.07	788.68	1229	1209	1189	2.322	1.969	1.687
x1 = 0.2924	790.57	786.12	781.6	1218	1198	1177	1.723	1.491	1.304
x1 = 0.3906	783.89	779.33	774.71	1209	1188	1167	1.296	1.148	1.027
x1 = 0.5117	775.68	771.03	766.32	1201	1179	1157	0.957	0.87	0.794
x1 = 0.6242	768.16	763.43	758.63	1197	1175	1152	0.747	0.694	0.645
x1 = 0.721	761.81	756.98	752.09	1198	1175	1152	0.629	0.587	0.548
x1 = 0.8091	756.27	751.36	746.38	1202	1178	1154	0.552	0.516	0.487
x1 = 0.9094	749.82	744.82	739.76	1211	1186	1161	0.482	0.453	0.428
x1 = 0.9552	746.94	741.92	736.85	1218	1193	1167	0.455	0.43	0.407
x1 = 1	744.52	739.55	734.54	1232	1206	1180	0.439	0.416	0.394

CCCC(C)O (stereo unspecified) [pentan-2-ol]
[1]
Conditions	mass density, 293.15 K [kg/m3]	mass density, 298.15 K [kg/m3]	mass density, 303.15 K [kg/m3]	speed of sound, 293.15 K [m/s]	speed of sound, 298.15 K [m/s]	speed of sound, 303.15 K [m/s]	viscosity, 293.15 K [mPa·s]	viscosity, 298.15 K [mPa·s]	viscosity, 303.15 K [mPa·s]
7 kPa	–	–	–	1250	1232	1214	–	–	–
101 kPa	809.04	805.01	800.9	1250	1232	1214	4.001	3.273	2.774

CCCC(C)O (stereo unspecified) [pentan-2-ol] + C1CCCC1
[2], x2 = 0
Conditions	mass density [kg/m3]	speed of sound [m/s]	viscosity [mPa·s]
293.15 K	809.04	1250	4.001
298.15 K	805.01	1232	3.273
303.15 K	800.9	1214	2.774

CC(C)O [propan-2-ol]
[1], 101 kPa
Conditions	mass density [kg/m3]	speed of sound [m/s]	viscosity [mPa·s]
293.15 K	785.07	1156	2.382
298.15 K	780.87	1139	2.045
303.15 K	776.6	1121	1.763

CC(C)O [propan-2-ol] + C1CCCC1
[2], x2 = 0
Conditions	mass density [kg/m3]	speed of sound [m/s]	viscosity [mPa·s]
293.15 K	785.07	1156	2.382
298.15 K	780.87	1139	2.045
303.15 K	776.6	1121	1.763

CC(C)O [propan-2-ol] + C1CCCCC1
[2], x2 = 0
Conditions	mass density [kg/m3]	speed of sound [m/s]	viscosity [mPa·s]
293.15 K	785.07	1156	2.382
298.15 K	780.87	1139	2.045
303.15 K	776.6	1121	1.763
